What follows are compounds tested against PC4 and SFRS1-interacting protein (Homo sapiens, UniProt O75475).
PC4 and SFRS1-interacting protein, sequence (O75475 whole entry): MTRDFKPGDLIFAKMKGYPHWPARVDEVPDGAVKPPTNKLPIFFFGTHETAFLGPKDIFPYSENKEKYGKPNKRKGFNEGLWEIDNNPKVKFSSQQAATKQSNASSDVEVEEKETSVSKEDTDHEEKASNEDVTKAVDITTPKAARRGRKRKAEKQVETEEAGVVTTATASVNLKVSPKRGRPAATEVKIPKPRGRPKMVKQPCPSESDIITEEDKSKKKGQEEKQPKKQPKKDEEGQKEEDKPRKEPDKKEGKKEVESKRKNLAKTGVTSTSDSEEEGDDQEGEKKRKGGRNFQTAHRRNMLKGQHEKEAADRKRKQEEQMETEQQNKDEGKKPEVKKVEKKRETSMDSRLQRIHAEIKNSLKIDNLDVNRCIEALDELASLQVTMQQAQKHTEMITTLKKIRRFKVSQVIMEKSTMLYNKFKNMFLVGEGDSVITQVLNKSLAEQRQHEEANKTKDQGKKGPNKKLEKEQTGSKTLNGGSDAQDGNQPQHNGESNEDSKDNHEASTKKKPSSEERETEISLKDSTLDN
Description: Binding affinity to N-terminal His10-tagged LEDGF/P75 PWWP domain (1 to 110 residues) (unknown origin) expressed in Escherichia coli assessed as dissociation constant incubated for overnight by NMR analysis

Structure (SMILES)	Kd [µM]
NCc1cncc(Br)c1	216
NC(=O)CCN1CCCC1c1ccccc1 (stereo unspecified)	363
CCS(=O)(=O)c1ccccc1NC(=O)CCl	700
Nc1ccc(CNCc2cncc(Br)c2)cc1	147

The remaining lines, values ahead:

Kd [µM]	Structure (SMILES)
526	CCS(=O)(=O)c1ccc(C2CCCCN2)cc1 (stereo unspecified)
590	CCS(=O)(=O)c1ccccc1NC(=O)COc1cccc(CC(=O)O)c1
